# Measured values: US20210113501A1, “METHOD OF ADMINISTERING BETA-HYDROXY-BETA-METHYLBUTYRATE (HMB)” (Metabolic Technologies, Inc., priority 2009, published 2021)
# Columns and labels:
# Assay type in all cases: in vivo, human
# [1] = Example 3: plasma HMB with probiotic supplementation; conditions: 0.8 g HMB-FA vs 1.0 g CaHMB; before and after 14 days of probiotic
# Method: A study was conducted to examine the bioavailability of HMB-acid and CaHMB when also administering a probiotic. Six volunteers were tested before and after two weeks of probiotic supplementation. Between trials, each volunteer took one dose of probiotics (BC^30) every morning for 14 days. At each trial, baseline plasma HMB levels were measured, then gave each volunteer one serving of HMB (1.0 g of CaHMB or 0.8 g of HMB-FA). Plasma HMB levels were measured at 2, 5, 10, 15, 25, 35, 45, 60, 90, 120, 150, and 180 min, as well as at 6, 12, and 24 hours.
# [2] = 12-week periodized resistance-training study of HMB-FA: strength and power
# Text: The current study was a randomized, double-blind, placebo- and diet-controlled experiment consisting of a 12-week-periodized resistance-training program. The training protocol was divided into three phases and consisted of a non-linear-periodized resistance-training program for the first 8 weeks, followed by a 2-week overreaching cycle, and finally a 2-week taper of the training volume. Muscle mass, body composition, strength, power, resting plasma testosterone, cortisol, and creatine kinase (CK) levels were examined collectively at the end of weeks 0, 4, 8, and 12 to assess the chronic effects of HMB; these measures were also assessed at the end of weeks 9 and 10, corresponding to the mid- and endpoints of the phase 2 overreaching cycle.
# Twenty-four resistance-trained males were tested and included in the study. Subjects were organized into quartile blocks based on their LBM and strength. Following this, each quartile was randomized to one of the treatment groups using computer-generated random numbers. After treatment assignment, the groups were assessed to confirm there were no differences between groups. Of those randomized to the treatments, three subjects dropped from the placebo group, two because of injury and one because of the time commitment, while one dropped from the HMB-FA group due to injury. All drop outs occurred during the first 4 weeks of the study. The remaining 20 subjects (21.6±0.5 years of age) consisting of nine placebo (87.1±4.8 kg; 180.9 cm) and 11 supplemented (83.1±2.8 kg; 179.0±2.1) males with an average squat, bench press, and deadlift of 1.7±0.04, 1.3±0.04, and 2.0±0.05 times their bodyweight, respectively, completed the study. There were no significant differences for age, body weight, height, or BMI between the treatment groups at the start of the study
# Strength was assessed via a one-repetition maximum (1-RM) testing of the back squat, bench press, and deadlift. The intraclass correlation coefficient (ICC) for the test-retest of strength in the squat, bench press, and deadlift ranged from r=0.956 to 0.982. Body composition [LBM, fat mass (FM), and total mass] was determined on a Lunar Prodigy dual X-ray absorptiometry (DXA) apparatus (software version, enCORE 2008, Madison, Wis., USA). Tests for the DXA were performed at the same time of day in a fasted state and the ICC was r=0.981. Skeletal muscle hypertrophy was assessed via changes in ultrasonography (GE Logiq e 2008, Wauwatosa, Wis., USA) determined combined muscle thickness of the vastus lateralis (VL) and vastus intermedius (VI) muscles. The ICC for the test-retest of muscle thickness measurements was r=0.975.
# Peak power (PP) was assessed during maximal cycling (modified Wingate test) and jumping movements. During the cycling test, the volunteer was instructed to cycle against a predetermined resistance (7.5% of body weight) as fast as possible for 10 s on a cycle ergometer (Monark model 894e, Vansbro, Sweden). Wingate PP was recorded using Monark anaerobic test software (Version 1.0, Monark, Vansbro, Sweden). From completion of Wingate tests performed over several days, the ICC for Wingate PP was 0.966.
# Measurements of PP for the vertical jump were also taken on a multicomponent AMTI force platform (Advanced Mechanical Technology, Watertown, Mass. USA) which interfaced with a personal computer at a sampling rate of 1,000 Hz). Data acquisition software (LabVIEW, version 7.1; National Instruments Corporation, Austin, Tex., USA) was used to calculate vertical jump PP. The ICC for VJ PP was 0.971.
# Prior to the study, participants were randomly assigned to receive either 3 g per day of HMB-FA or a placebo divided equally into three servings. Each serving was formulated with 1 g of HMB-FA. The first serving was given 30 min prior to exercise and the remaining two servings given with the mid-day and evening meals. On the non-training days, participants were instructed to consume one serving with each of three separate meals throughout the day. […]
# [3] = Comparison of the CaHMB and HMB-acid strength studies; conditions: comparison of two separate studies
# Method: A study was conducted to examine the effects of CaHMB on strength. A second study was conducted to examine the effects of HMB-acid on strength. The results of these studies were then compared to determine the improved efficacy of HMB-acid over CaHMB on increasing strength gains.
# Thirty-two male volunteers 19-22 yr of age were selected for the study. Body weight averaged 99.3±3.4 kg with a range of 72-136 kg and height was 185±1.5 cm with a range of 170-198 cm. Almost all subjects were engaged in some form of exercise program before the study.
# Body composition was measured with TOBEC except that all subjects were measured after an overnight fast. Measurements were made on the Friday morning before the start of the experiment and each Friday thereafter. Strength measurements were made the week before the study and consisted of three standard strength measurements: the bench press, the squat, and the hang clean. Treatments and exercise regimens were started on Monday. The exercise regimen consisted of weight training 6 day s/wk, which included work on all major muscle groups, and lasted from 2 to 3 h/day. Aerobic training was also included in the exercise workout at least three times per week. […]
# Differences between the two treatment groups were determined with at-test. […] Trends were determined for 0.05<P<0.11, and differences were considered not significant for P>0.11. […]
# [4] = after 12 weeks of training, 3 g per day
compound,measurement,setting,value
"CC(C)(O)CC(=O)O [HMB-acid, 3-hydroxy-3-methylbutyric acid]","time to peak plasma HMB, retention and bioavailability versus CaHMB",[1],"faster time to peak plasma levels, greater retention of HMB, and improved bioavailability"
same,increase in vertical jump power,[2]; after 12 weeks,19%
same,"strength increase, bench press",[2]; [4],12%
same,"strength increase, deadlift",[2]; [4],16%
same,"strength increase, squat",[2]; [4],25%
same,"strength increase, total strength",[2]; [4],18%
same,increase in Wingate peak power,[2]; over the 12-week study,18%
same,total strength increase,"[2]; over the 12-week study, 3 g per day",77.1 ± 18.4 kg
same,"net percent increase per week in squat and bench press, greater than with CaHMB",[3],~80%
